Experimental data: patent publication US9902722B2, “Biaryl kinase inhibitors” (BRISTOL-MYERS SQUIBB COMPANY, priority 2014, dated 2018)

target: GST-Xa-hAAK1 (Homo sapiens (Human), UniProt Q2M2I8); experiment: AAK1 Kinase Assay; format: biochemical; details: bacterially expressed GST-Xa-hAAK1 3.5 nM; ATP 22 μM; peptide substrate 1.5 μM; 3 hours at room temperature; Caliper LabChip 3000;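 also: each compound tested across an eleven-point concentration series, with IC50 obtained through non-linear regression fitting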
Sequence (Q2M2I8 whole entry): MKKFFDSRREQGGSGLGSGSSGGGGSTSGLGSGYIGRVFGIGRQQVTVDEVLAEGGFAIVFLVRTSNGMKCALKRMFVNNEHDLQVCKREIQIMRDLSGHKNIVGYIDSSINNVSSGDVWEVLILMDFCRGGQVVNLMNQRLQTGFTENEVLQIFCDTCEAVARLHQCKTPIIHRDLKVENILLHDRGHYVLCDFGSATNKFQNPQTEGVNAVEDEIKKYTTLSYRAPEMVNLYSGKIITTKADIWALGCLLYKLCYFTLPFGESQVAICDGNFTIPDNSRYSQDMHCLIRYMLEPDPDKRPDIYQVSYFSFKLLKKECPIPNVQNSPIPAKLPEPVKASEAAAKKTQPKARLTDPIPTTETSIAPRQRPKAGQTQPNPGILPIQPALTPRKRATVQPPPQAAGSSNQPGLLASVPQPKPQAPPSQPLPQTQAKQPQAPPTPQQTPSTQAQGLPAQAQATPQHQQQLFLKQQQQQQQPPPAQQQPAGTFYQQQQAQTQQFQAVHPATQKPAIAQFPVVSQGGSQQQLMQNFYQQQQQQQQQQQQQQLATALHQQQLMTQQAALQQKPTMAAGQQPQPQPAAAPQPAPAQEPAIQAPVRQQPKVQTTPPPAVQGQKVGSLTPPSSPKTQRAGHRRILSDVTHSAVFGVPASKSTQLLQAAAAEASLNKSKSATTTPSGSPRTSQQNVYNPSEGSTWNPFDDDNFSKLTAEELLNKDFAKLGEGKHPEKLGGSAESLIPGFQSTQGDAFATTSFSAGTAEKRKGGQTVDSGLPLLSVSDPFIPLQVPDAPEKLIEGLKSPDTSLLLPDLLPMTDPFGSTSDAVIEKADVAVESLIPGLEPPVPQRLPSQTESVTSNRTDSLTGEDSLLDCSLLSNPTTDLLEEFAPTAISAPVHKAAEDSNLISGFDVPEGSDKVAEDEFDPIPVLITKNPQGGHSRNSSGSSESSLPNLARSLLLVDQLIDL
Method: The assays were performed in U-bottom 384-well plates. […] The reactions were initiated by the combination of bacterially expressed, GST-Xa-hAAK1 with substrates and test compounds. The reactions were incubated at room temperature for 3 hours and terminated by adding 60 μl of 35 mM EDTA buffer to each sample. […] Compounds were dissolved at 10 mM in dimethylsulfoxide (DMSO) and evaluated at eleven concentrations. IC50 values were derived by non-linear regression analysis.

| Compound | IC50 |
| --- | --- |
| COC(=O)Nc1cc(-c2ccc(OC[C@@](C)(N)CC(C)C)c(OC(F)(F)F)c2)ccn1 [Example 26, (S)-methyl (4-(4-((2-amino-2,4-dimethylpentyl)oxy)-3-(trifluoromethoxy)phenyl)pyridin-2-yl)carbamate] | 0.69 nM |
| Cc1cc(-c2cc(C)c(OC[C@@](C)(N)CC(C)C)c(C)n2)ccn1 [Example 212, (S)-2,4-dimethyl-1-((2′,4,6-trimethyl-[2,4′-bipyridin]-5-yl)oxy)pentan-2-amine] | 1020 nM |
| CC(C)C[C@](C)(N)COc1ncc(-c2ccnc3cc(C#N)ccc23)cc1F [Example 99, (S)-4-(6-((2-amino-2,4-dimethylpentyl)oxy)-5-fluoropyridin-3-yl)quinoline-7-carbonitrile] | 31 nM |

The remaining molecules from weak to strong by IC50, led by results:

| IC50 | Compound |
| --- | --- |
| 1.9 nM | Cc1nc(-c2ccnc(N)c2F)ccc1OC[C@@](C)(N)CC(C)C [Example 153, (S)-5-((2-amino-2,4-dimethylpentyl)oxy)-3′-fluoro-6-methyl-[2,4′-bipyridin]-2′-amine] |
| 1 nM | CC(=O)Nc1cc(-c2ccc(OC[C@@](C)(N)CC(C)C)c(F)c2)ccn1 [Example 27, (S)—N-(4-(4-((2-amino-2,4-dimethylpentyl)oxy)-3-fluorophenyl)pyridin-2-yl)acetamide] |
